Experimental data from ChEMBL document CHEMBL3259715, “Shuttle-cargo fusion molecules of transport peptides and the hD2/3 receptor antagonist fallypride: a feasible approach to preserve ligand-receptor binding?” (J Med Chem, 2014).
Peptide text beside a SMILES is read from it. * marks the point of attachment. X1 = C=CCN1CCC[C@H]1CNC(=O)c1cc(CCCSC2CC(=O)N(CCCCCC(=O)*)C2=O)cc(OC)c1OC

Molecular target: D(2) dopamine receptor (Homo sapiens, UniProt P14416)
Assay: Displacement of [3H]spiperone from human D2 receptor transfected in HEK cells
Type: cell-based, HEK293

Chain of D(2) dopamine receptor (P14416 whole entry): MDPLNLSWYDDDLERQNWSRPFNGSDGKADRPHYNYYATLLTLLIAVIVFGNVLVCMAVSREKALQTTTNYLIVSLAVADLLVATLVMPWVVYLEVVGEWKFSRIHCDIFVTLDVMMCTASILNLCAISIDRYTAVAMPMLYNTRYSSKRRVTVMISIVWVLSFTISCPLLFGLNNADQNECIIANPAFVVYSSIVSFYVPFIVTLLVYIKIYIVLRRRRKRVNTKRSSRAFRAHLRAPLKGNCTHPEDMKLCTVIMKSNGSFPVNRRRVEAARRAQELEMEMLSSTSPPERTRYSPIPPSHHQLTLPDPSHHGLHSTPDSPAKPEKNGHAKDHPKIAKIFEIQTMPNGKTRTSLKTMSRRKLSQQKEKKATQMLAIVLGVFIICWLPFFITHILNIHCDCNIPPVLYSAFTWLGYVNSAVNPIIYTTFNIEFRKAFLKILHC

| Compound | Ki |
| --- | --- |
| C=CCN1CCC[C@H]1CNC(=O)c1cc(CCCSC2CC(=O)N(CCCCCC(=O)NCC(=O)N[C@@H](CCCNC(=N)N)C(=O)N[C@@H](CCCCN)C(=O)N[C@@H](CCCCN)C(=O)N[C@@H](CCCNC(=N)N)C(=O)N[C@@H](CCCNC(=N)N)C(=O)N[C@@H](CCC(N)=O)C(=O)N[C@@H](CCCNC(=N)N)C(=O)N[C@@H](CCCNC(=N)N)C(=O)N[C@@H](CCCNC(=N)N)C(=O)N3CCC[C@H]3C(=O)N3CCC[C@H]3C(=O)N[C@@H](CCC(N)=O)C(=O)O)C2=O)cc(OC)c1OC (some centres undefined) | 21.5 nM |
| C=CCN1CCC[C@H]1CNC(=O)c1cc(CCCSC2CC(=O)N(CCCCCC(=O)N[C@@H](CCCNC(=N)N)C(=O)N[C@@H](CCCCN)C(=O)N[C@@H](CCCCN)C(=O)N[C@@H](CCCNC(=N)N)C(=O)N[C@@H](CCCNC(=N)N)C(=O)N[C@@H](CCC(N)=O)C(=O)N[C@@H](CCCNC(=N)N)C(=O)N[C@@H](CCCNC(=N)N)C(=O)N[C@@H](CCCNC(=N)N)C(=O)O)C2=O)cc(OC)c1OC (some centres undefined) | 9.69 nM |
| C=CCN1CCC[C@H]1CNC(=O)c1cc(CCCSC2CC(=O)N(CCCCCC(=O)N[C@@H](Cc3cnc[nH]3)C(=O)N[C@@H](C)C(=O)N[C@H](C(=O)N[C@@H](Cc3ccc(O)cc3)C(=O)N3CCC[C@H]3C(=O)N[C@@H](CCCNC(=N)N)C(=O)N[C@@H](Cc3cnc[nH]3)C(=O)O)[C@@H](C)CC)C2=O)cc(OC)c1OC (some centres undefined) | 10.3 nM |
| C=CCN1CCC[C@H]1CNC(=O)c1cc(CCCSC2CC(=O)N(CCCCCC(=O)N[C@@H](CCCNC(=N)N)C(=O)N[C@@H](CCC(N)=O)C(=O)N[C@H](C(=O)N[C@@H](CCCCN)C(=O)N[C@H](C(=O)N[C@@H](Cc3c[nH]c4ccccc34)C(=O)N[C@@H](Cc3ccccc3)C(=O)N[C@@H](CCC(N)=O)C(=O)N[C@@H](CC(N)=O)C(=O)N[C@@H](CCCNC(=N)N)C(=O)N[C@@H](CCCNC(=N)N)C(=O)N[C@@H](CCSC)C(=O)N[C@@H](CCCCN)C(=O)N[C@@H](Cc3c[nH]c4ccccc34)C(=O)N[C@@H](CCCCN)C(=O)N[C@@H](CCCCN)C(=O)O)[C@@H](C)CC)[C@@H](C)CC)C2=O)cc(OC)c1OC (some centres undefined) | 8.14 nM |
| C=CCN1CCC[C@H]1CNC(=O)c1cc(CCCSC2CC(=O)N(CCCCCC(=O)NCCCC(=O)N[C@@H](Cc3cnc[nH]3)C(=O)N[C@@H](C)C(=O)N[C@H](C(=O)N[C@@H](Cc3ccc(O)cc3)C(=O)N3CCC[C@H]3C(=O)N[C@@H](CCCNC(=N)N)C(=O)N[C@@H](Cc3cnc[nH]3)C(=O)O)[C@@H](C)CC)C2=O)cc(OC)c1OC (some centres undefined) | 28.4 nM |
| C=CCN1CCC[C@H]1CNC(=O)c1cc(CCCSC2CC(=O)N(CCCCCC(=O)NCCOCCOCC(=O)N[C@@H](Cc3cnc[nH]3)C(=O)N[C@@H](C)C(=O)N[C@H](C(=O)N[C@@H](Cc3ccc(O)cc3)C(=O)N3CCC[C@H]3C(=O)N[C@@H](CCCNC(=N)N)C(=O)N[C@@H](Cc3cnc[nH]3)C(=O)O)[C@@H](C)CC)C2=O)cc(OC)c1OC (some centres undefined) | 30.3 nM |
| C=CCN1CCC[C@H]1CNC(=O)c1cc(CCCSC2CC(=O)N(CCCCCC(=O)NCCOCCOCCOCCOCCOCCOCCC(=O)N[C@@H](Cc3cnc[nH]3)C(=O)N[C@@H](C)C(=O)N[C@H](C(=O)N[C@@H](Cc3ccc(O)cc3)C(=O)N3CCC[C@H]3C(=O)N[C@@H](CCCNC(=N)N)C(=O)N[C@@H](Cc3cnc[nH]3)C(=O)O)[C@@H](C)CC)C2=O)cc(OC)c1OC (some centres undefined) | 27.4 nM |
| C=CCN1CCC[C@H]1CNC(=O)c1cc(CCCSC2CC(=O)N(CCCCCC(=O)NCCOCCOCCOCCOCCOCCOCCOCCOCCC(=O)N[C@@H](Cc3cnc[nH]3)C(=O)N[C@@H](C)C(=O)N[C@H](C(=O)N[C@@H](Cc3ccc(O)cc3)C(=O)N3CCC[C@H]3C(=O)N[C@@H](CCCNC(=N)N)C(=O)N[C@@H](Cc3cnc[nH]3)C(=O)O)[C@@H](C)CC)C2=O)cc(OC)c1OC (some centres undefined) | 53.9 nM |
| C=CCN1CCC[C@H]1CNC(=O)c1cc(CCCSC2CC(=O)N(CCCCCC(=O)NCCOCCOCCOCCOCCOCCOCCOCCOCCOCCOCCOCCOCCC(=O)N[C@@H](Cc3cnc[nH]3)C(=O)N[C@@H](C)C(=O)N[C@H](C(=O)N[C@@H](Cc3ccc(O)cc3)C(=O)N3CCC[C@H]3C(=O)N[C@@H](CCCNC(=N)N)C(=O)N[C@@H](Cc3cnc[nH]3)C(=O)O)[C@@H](C)CC)C2=O)cc(OC)c1OC (some centres undefined) | 25.3 nM |
| C=CCN1CCC[C@H]1CNC(=O)c1cc(CCCSC2CC(=O)N(CCCCCC(=O)NCCOCCOCCOCCOCCC(=O)N[C@H](C(=O)N[C@@H](Cc3ccccc3)C(=O)N[C@@H](Cc3ccccc3)C(=O)N[C@@H](Cc3ccc(O)cc3)C(=O)NCC(=O)NCC(=O)N[C@@H](CO)C(=O)N[C@@H](CCCNC(=N)N)C(=O)NCC(=O)N[C@@H](CCCCNC(=O)CN3CCN(CC(=O)O)CCN(CC(=O)O)CCN(CC(=O)O)CC3)C(=O)N[C@@H](CCCNC(=N)N)C(=O)N[C@@H](CC(N)=O)C(=O)N[C@@H](CC(N)=O)C(=O)N[C@@H](Cc3ccccc3)C(=O)N[C@@H](CCCCN)C(=O)N[C@H](C(=O)N[C@@H](CCC(=O)O)C(=O)N[C@@H](CCC(=O)O)C(=O)N[C@@H](Cc3ccc(O)cc3)C(=O)O)[C@@H](C)O)[C@@H](C)O)C2=O)cc(OC)c1OC (some centres undefined) | 26.1 nM |
| C=CCN1CCC[C@H]1CNC(=O)c1cc(CCCSC2CC(=O)N(CCCCCC(=O)NCCOCCOCCOCCOCCOCCOCCC(=O)N[C@H](C(=O)N[C@@H](Cc3ccccc3)C(=O)N[C@@H](Cc3ccccc3)C(=O)N[C@@H](Cc3ccc(O)cc3)C(=O)NCC(=O)NCC(=O)N[C@@H](CO)C(=O)N[C@@H](CCCNC(=N)N)C(=O)NCC(=O)N[C@@H](CCCCNC(=O)CN3CCN(CC(=O)O)CCN(CC(=O)O)CCN(CC(=O)O)CC3)C(=O)N[C@@H](CCCNC(=N)N)C(=O)N[C@@H](CC(N)=O)C(=O)N[C@@H](CC(N)=O)C(=O)N[C@@H](Cc3ccccc3)C(=O)N[C@@H](CCCCN)C(=O)N[C@H](C(=O)N[C@@H](CCC(=O)O)C(=O)N[C@@H](CCC(=O)O)C(=O)N[C@@H](Cc3ccc(O)cc3)C(=O)O)[C@@H](C)O)[C@@H](C)O)C2=O)cc(OC)c1OC (some centres undefined) | 35.8 nM |
| C=CCN1CCC[C@H]1CNC(=O)c1cc(CCCSC2CC(=O)N(CCCCCC(=O)NCCOCCOCCOCCOCCOCCOCCOCCOCCC(=O)N[C@H](C(=O)N[C@@H](Cc3ccccc3)C(=O)N[C@@H](Cc3ccccc3)C(=O)N[C@@H](Cc3ccc(O)cc3)C(=O)NCC(=O)NCC(=O)N[C@@H](CO)C(=O)N[C@@H](CCCNC(=N)N)C(=O)NCC(=O)N[C@@H](CCCCNC(=O)CN3CCN(CC(=O)O)CCN(CC(=O)O)CCN(CC(=O)O)CC3)C(=O)N[C@@H](CCCNC(=N)N)C(=O)N[C@@H](CC(N)=O)C(=O)N[C@@H](CC(N)=O)C(=O)N[C@@H](Cc3ccccc3)C(=O)N[C@@H](CCCCN)C(=O)N[C@H](C(=O)N[C@@H](CCC(=O)O)C(=O)N[C@@H](CCC(=O)O)C(=O)N[C@@H](Cc3ccc(O)cc3)C(=O)O)[C@@H](C)O)[C@@H](C)O)C2=O)cc(OC)c1OC (some centres undefined) | 42.8 nM |
| C=CCN1CCC[C@H]1CNC(=O)c1cc(CCCSC2CC(=O)N(CCCCCC(=O)N[C@H](C(=O)N[C@@H](Cc3ccccc3)C(=O)N[C@@H](Cc3ccccc3)C(=O)N[C@@H](Cc3ccc(O)cc3)C(=O)NCC(=O)NCC(=O)N[C@@H](CO)C(=O)N[C@@H](CCCNC(=N)N)C(=O)NCC(=O)N[C@@H](CCCCNC(=O)CN3CCN(CC(=O)O)CCN(CC(=O)O)CCN(CC(=O)O)CC3)C(=O)N[C@@H](CCCNC(=N)N)C(=O)N[C@@H](CC(N)=O)C(=O)N[C@@H](CC(N)=O)C(=O)N[C@@H](Cc3ccccc3)C(=O)N[C@@H](CCCC[n+]3c(C)cc(/C=C/C=C/c4ccc(N(C)C)cc4)cc3C)C(=O)N[C@H](C(=O)N[C@@H](CCC(=O)O)C(=O)N[C@@H](CCC(=O)O)C(=O)N[C@@H](Cc3ccc(O)cc3)C(=O)O)[C@@H](C)O)[C@@H](C)O)C2=O)cc(OC)c1OC (some centres undefined) | 64.2 nM |
| C=CCN1CCC[C@H]1CNC(=O)c1cc(CCCSC2CC(=O)N(CCCCCC(=O)NCCOCCOCCOCCOCCC(N)=O)C2=O)cc(OC)c1OC (some centres undefined) | 7.31 nM |
| C=CCN1CCC[C@H]1CNC(=O)c1cc(CCCF)ccc1OC | 0.63 nM |
| C=CCN1CCC[C@H]1CNC(=O)c1cc(CCCSC2CC(=O)N(CCCCCC(=O)NCC(=O)N[C@@H](Cc3c[nH]c4ccccc34)C(=O)N[C@H](C(=O)N[C@@H](CC(C)C)C(=O)N[C@@H](CC(=O)O)C(=O)N[C@@H](CO)C(=O)N[C@@H](C)C(=O)NCC(=O)N[C@@H](Cc3ccc(O)cc3)C(=O)N[C@@H](CC(C)C)C(=O)N[C@@H](CC(C)C)C(=O)NCC(=O)N[C@@H](CCCCN)C(=O)N[C@H](C(=O)N[C@@H](CC(=O)O)C(=O)N[C@@H](CC(C)C)C(=O)N[C@@H](CCCCN)C(=O)N[C@@H](C)C(=O)N[C@@H](CC(C)C)C(=O)N[C@@H](C)C(=O)N[C@@H](C)C(=O)N[C@@H](CC(C)C)C(=O)N[C@@H](C)C(=O)N[C@@H](CCCCN)C(=O)N[C@@H](CCCCN)C(=O)N[C@H](C(=O)N[C@@H](CC(C)C)C(=O)O)[C@@H](C)CC)[C@@H](C)CC)[C@@H](C)O)C2=O)cc(OC)c1OC (some centres undefined) (X1-GWTLDSAGYLLGKIDLKALAALAKKIL-OH) | 12.3 nM |
| C=CCN1CCC[C@H]1CNC(=O)c1cc(CCCSC2CC(=O)N(CCCCCC(=O)N[C@H](C(=O)N[C@@H](Cc3cnc[nH]3)C(=O)N[C@@H](CCCNC(=N)N)C(=O)N3CCC[C@H]3C(=O)N3CCC[C@H]3C(=O)N[C@@H](CCSC)C(=O)N[C@@H](Cc3c[nH]c4ccccc34)C(=O)N[C@@H](CO)C(=O)N3CCC[C@H]3C(=O)N[C@H](C(=O)N[C@@H](Cc3c[nH]c4ccccc34)C(=O)N3CCC[C@H]3C(=O)O)C(C)C)[C@@H](C)O)C2=O)cc(OC)c1OC (some centres undefined) (X1-THRPPMWSPVWP-OH) | 27.3 nM |
| C=CCN1CCC[C@H]1CNC(=O)c1cc(CCCSC2CC(=O)N(CCCCCC(=O)N[C@H](C(=O)N[C@@H](CCC(N)=O)C(=O)N[C@@H](CCCNC(=N)N)C(=O)N[C@@H](CCCCN)C(=O)N[C@@H](CCCNC(=N)N)C(=O)N[C@@H](CCC(N)=O)C(=O)N[C@@H](CCCCN)C(=O)N[C@@H](CC(C)C)C(=O)N[C@@H](CCSC)C(=O)N3CCC[C@H]3C(=O)O)C(C)C)C2=O)cc(OC)c1OC (some centres undefined) (X1-VQRKRQKLMP-OH) | 13 nM |
| H-VQRKRQKLMP-OH | > 1000 nM |
